From PMC117120 (BMC Biochemistry, 2002)
Where a chain is given by its changes, count along the chain named. Values joined by “and” are separate entries in the source; they are usually repeats but may differ in a detail not shown here. Identical values can stand only once.

What was measured:
[1] = target: T1, G147A mutant mouse 5-HT3ASR (Mus musculus, UniProt P23979, G148A); test: [^3H]granisetron saturation binding, G147A receptor
T1 sequence (P23979 24-483 isoform P23979-2 G148A): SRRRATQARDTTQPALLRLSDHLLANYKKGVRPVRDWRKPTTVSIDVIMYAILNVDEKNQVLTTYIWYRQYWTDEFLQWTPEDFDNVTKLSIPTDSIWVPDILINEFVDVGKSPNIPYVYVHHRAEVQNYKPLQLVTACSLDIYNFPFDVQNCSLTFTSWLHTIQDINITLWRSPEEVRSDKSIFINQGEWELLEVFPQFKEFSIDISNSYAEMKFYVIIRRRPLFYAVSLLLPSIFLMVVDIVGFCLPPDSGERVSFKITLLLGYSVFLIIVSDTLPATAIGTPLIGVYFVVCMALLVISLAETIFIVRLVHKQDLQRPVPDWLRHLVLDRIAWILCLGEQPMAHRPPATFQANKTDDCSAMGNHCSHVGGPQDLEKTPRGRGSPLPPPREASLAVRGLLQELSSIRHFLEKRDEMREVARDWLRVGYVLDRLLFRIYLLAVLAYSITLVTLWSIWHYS

[2] = target: T2, E148A mutant mouse 5-HT3ASR (Mus musculus, UniProt P23979, E149A); test: [^3H]granisetron saturation binding, E148A receptor
T2 sequence (P23979 24-483 isoform P23979-2 E149A): T1 sequence (P23979 24-483 isoform P23979-2 G148A) with A125G, E126A

[3] = target: T3, N151A mutant mouse 5-HT3ASR (Mus musculus, UniProt P23979, N152A); test: [^3H]granisetron saturation binding, N151A receptor; details: ± SE
T3 sequence (P23979 24-483 isoform P23979-2 N152A): T1 sequence (P23979 24-483 isoform P23979-2 G148A) with A125G, N129A

[4] = target: T4, Y140A mutant mouse 5-HT3ASR (Mus musculus, UniProt P23979, Y141A); test: [^3H]granisetron saturation binding, Y140A receptor; details: ± SE
T4 sequence (P23979 24-483 isoform P23979-2 Y141A): T1 sequence (P23979 24-483 isoform P23979-2 G148A) with Y118A, A125G

[5] = target: T5, V143A mutant mouse 5-HT3ASR (Mus musculus, UniProt P23979, V144A); test: [^3H]granisetron saturation binding, V143A receptor; details: ± SE
T5 sequence (P23979 24-483 isoform P23979-2 V144A): T1 sequence (P23979 24-483 isoform P23979-2 G148A) with V121A, A125G

## CN1C2CCCC1CC(NC(=O)c1nn(C)c3ccccc13)C2 (stereo not drawn) [[^3H]granisetron]
[1]
  binding of [^3H]granisetron: No detectable binding
[2]; E148A vs wildtype
  decrease in binding affinity (increased Kd), mutant vs wildtype: 5.3 fold
[2]; E148A, ± SE
  Bmax: 5.5 pmol/mg protein and 5.5 ± 1.2 pmol/mg protein
  Hill coefficient (n): 0.93 ± 0.19
[3]
  Bmax: 4.9 ± 1.1 pmol/mg protein
  Hill coefficient (n): 1.66 ± 0.16
[4]
  Bmax: 0.44 ± .08 pmol/mg protein
[5]
  Bmax: 1.1 ± .04 pmol/mg protein
  Hill coefficient (n): 0.97 ± 0.13
